# Test results reported in the supplement of paper PMC10307832.
# Tests used:
# Experiment in all cases: relative viability (nuclei count vs DMSO), 5 days (fraction); higher = more cells survive
# [1] = compound: C(C(=O)C(=O)O)Br [Bromopyruvate] + Cc1nc(Nc2ncc(C(=O)Nc3c(C)cccc3Cl)s2)cc(N2CCN(CCO)CC2)n1 [Dasatinib] (partner 0.075 µM)
# Method in brief: (§1)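 Dosing by pin tool came one day after lung cancer cell lines were seeded in 1536-well plates, using either one drug or a fixed anchor-drug dose plus five library-drug doses (not always all listed) in √10 steps. After 5 days, nuclei were counted on 4× images. Relative viability is treated-well nuclei count divided by vehicle-well nuclei count, and values are medians of duplicate plates.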
# [2] = compound: CC(O)(CS(=O)(=O)c1ccc(F)cc1)C(=O)Nc1ccc(C#N)c(C(F)(F)F)c1 [Bicalutamide] + CC(C)C[C@H](NC(=O)[C@H](Cc1ccccc1)NC(=O)c1cnccn1)B(O)O [Bortezomib] (partner 0.002 µM)
# Method in brief: as §1
# [3] = compound: CC(O)(CS(=O)(=O)c1ccc(F)cc1)C(=O)Nc1ccc(C#N)c(C(F)(F)F)c1 [Bicalutamide] + Cc1cc(Nc2cc(N3CCN(C)CC3)nc(Sc3ccc(NC(=O)C4CC4)cc3)n2)n[nH]1 [Tozasertib] (partner 0.1 µM)
# Method in brief: as §1
# [4] = compound: CC(O)(CS(=O)(=O)c1ccc(F)cc1)C(=O)Nc1ccc(C#N)c(C(F)(F)F)c1 [Bicalutamide] + Nc1nc2[nH]cc(CCc3ccc(C(=O)N[C@@H](CCC(=O)O)C(=O)O)cc3)c2c(=O)[nH]1 [Pemetrexed] (partner 0.2 µM)
# Method in brief: as §1
Cell Line,relative viability ([1]; first compound 1 µM),relative viability ([1]; first compound 3.162 µM),relative viability ([1]; first compound 10 µM),relative viability ([1]; first compound 31.62 µM),relative viability ([1]; first compound 100 µM),relative viability ([2]; first compound 0.08 µM),relative viability ([2]; first compound 0.253 µM),relative viability ([2]; first compound 0.8 µM),relative viability ([2]; first compound 2.53 µM),relative viability ([3]; first compound 0.08 µM),relative viability ([3]; first compound 0.253 µM),relative viability ([3]; first compound 0.8 µM),relative viability ([3]; first compound 2.53 µM),relative viability ([4]; first compound 0.08 µM),relative viability ([4]; first compound 0.253 µM),relative viability ([4]; first compound 0.8 µM),relative viability ([4]; first compound 2.53 µM)
NCI-H322M,0.253,0.258,0.248,0.235,0.259,1.13,1.32,1.4,1.35,0.522,0.478,0.51,0.504,0.594,0.553,0.635,0.709
NCI-H441,0.64,0.618,0.693,0.677,0.486,0.566,,0.531,0.398,0.496,0.689,0.631,0.585,0.311,0.281,0.284,0.272
NCI-H460,0.523,0.509,0.502,0.539,0.494,1.15,1.09,1.35,1.12,0.521,0.39,0.434,0.52,0.0574,0.0589,0.0592,0.0687
NCI-H520,0.216,0.222,0.154,0.251,0.241,0.576,0.391,0.96,0.432,0.433,0.414,0.539,0.458,0.846,0.635,0.81,0.635
NCI-H596,0.6,0.527,0.676,0.747,0.685,1.19,1.11,1.01,1.04,0.897,0.82,0.998,0.989,0.489,0.459,0.56,0.552
NCI-H647,0.156,0.218,0.215,0.187,0.169,0.973,0.96,1.4,0.903,0.3,0.264,0.293,0.191,0.187,0.172,0.172,0.151
NCI-H650,0.523,0.442,0.487,0.439,0.576,0.907,0.87,0.918,0.553,0.792,0.747,0.885,0.653,0.88,0.932,0.994,0.992
NCI-H661,0.785,1.02,0.929,0.943,1.05,0.84,0.931,0.81,0.849,0.367,0.355,0.362,0.359,0.939,0.965,0.942,0.896
NCI-H838,0.325,0.277,0.208,0.302,0.264,0.715,0.626,1.28,0.624,0.274,0.279,0.289,0.23,0.272,0.232,0.261,0.243
NCI-H1355,0.674,0.761,0.766,0.713,0.786,1.21,1.07,1.43,1.1,0.613,0.499,0.658,0.462,1.04,0.992,1.1,0.999
NCI-H1437,0.491,0.493,0.427,0.317,0.415,0.493,0.372,0.759,0.455,0.399,0.423,0.448,0.403,0.312,0.303,0.349,0.316
NCI-H1650,0.309,0.268,0.289,0.395,0.211,0.172,0.204,0.192,0.175,0.501,0.395,0.341,0.388,0.353,0.411,0.433,0.365
NCI-H1651,0.409,0.462,0.527,0.411,0.428,0.917,0.864,1.04,0.959,0.761,0.658,0.66,0.632,0.597,0.525,0.672,0.618
NCI-H1666,0.847,0.839,0.785,0.855,0.694,0.808,0.802,1,0.949,0.6,0.562,0.625,0.597,0.886,0.865,0.894,0.879
NCI-H1734,0.462,0.436,0.548,0.44,0.365,1.01,0.843,1.12,0.915,0.249,0.244,0.268,0.279,0.428,0.405,0.455,0.393
NCI-H1755,0.439,0.46,0.469,0.464,0.475,0.97,0.892,0.938,0.895,0.458,0.625,0.576,0.599,0.386,0.379,0.434,0.477
